The source of these data is patent US20240252488A1 (KOREA RESEARCH INSTITUTE OF CHEMICAL TECHNOLOGY, priority 2020, published 2024).

One assay concerns FADD−/− Jurkat cells. As to the kind of experiment: Necroptosis inhibition assay, TNF-α-induced necroptosis (CellTiter-Glo 2.0). The assay is classed as cell-based, human. The settings on record: TNF-α 15 ng/mL; for Necroptosis inhibition assay (Rescue %) 1 μM: compound 1 μM; for Necroptosis inhibition assay (Rescue %) 10 μM: compound 10 μM. The essentials:
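Necroptosis was triggered by TNF-α at 15 ng/mL final following 30 minutes of compound exposure (0.1, 1 or 10 μM final). Incubation ran 20 to 24 hours at 37° C under 5% CO2; cell ATP was then quantified by luminescence.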

Assay [1] has as its target T1, MLKL (Homo sapiens, UniProt Q8NB16).
T1 sequence (Q8NB16 1-471): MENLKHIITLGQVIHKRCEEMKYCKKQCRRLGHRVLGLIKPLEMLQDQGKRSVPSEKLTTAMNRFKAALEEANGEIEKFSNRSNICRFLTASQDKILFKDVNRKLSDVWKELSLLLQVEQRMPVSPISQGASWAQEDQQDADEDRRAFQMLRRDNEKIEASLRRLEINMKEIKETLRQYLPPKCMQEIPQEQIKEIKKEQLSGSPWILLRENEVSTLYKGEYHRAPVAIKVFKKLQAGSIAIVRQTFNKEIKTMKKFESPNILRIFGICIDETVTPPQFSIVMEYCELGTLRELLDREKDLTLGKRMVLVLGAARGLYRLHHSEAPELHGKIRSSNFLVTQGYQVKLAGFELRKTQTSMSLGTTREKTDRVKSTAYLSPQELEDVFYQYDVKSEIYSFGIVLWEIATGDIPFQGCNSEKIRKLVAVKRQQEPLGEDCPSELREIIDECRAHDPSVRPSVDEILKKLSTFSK
The assay can be described thus: MLKL degradation assay in HepG2 cell line (western blot). The format is cell-based. Also on record: endogenous in cells; host or cells: HepG2 or HaCaT. The settings on record: cell line not given; for Degradation assay (Degradation %) 10 μM: compound 10 μM; for Degradation assay (Degradation %) 1 μM: compound 1 μM. The essentials:
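After treating HepG2 with test compounds (final 1 μM or 10 μM) for 20-24 h, we lysed cells, equalized protein by BCA and probed MLKL by overnight primary antibody at 4 °C followed by chemiluminescent detection.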
In general terms: Immunoblotting shows a protein as a band on a membrane.

In assay [2] the target is T1, MLKL. As to the kind of experiment: Measurement of binding affinity with MLKL receptor (competitive binding assay, Kd). Details: made in house; host or cells: HEK 293 cell line (T7 phage in E. coli BL21-derived host is also described). Put shortly:
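Kd from an immobilized-ligand competition format: the DNA-tagged kinase from HEK 293 expression is eluted and quantified by qPCR. Compounds added from 111× DMSO stocks, final DMSO 0.9%.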

pKd: −log10 of the molar value.

In general, pKd refers to −log10 of the Kd, conventionally taken in molar units. Turning to `Nc1ncc(-c2cnn([C@@H]3CCN(CCOCCOCCNC(=O)CNc4cccc5c4C(=O)N(C4CCC(=O)NC4=O)C5=O)C3)c2)nc1C(=O)OC(C(=O)Nc1ccc(F)cc1)c1ccccc1` (stereo partly drawn) [TDH-267, 2-((4-fluorophenyl)amino)-2-oxo-1-phenylethyl 3-amino-6-(1-((3R)-1-(2-(2-(2-(2-((2-(2,6-dioxopiperidin-3-yl)-1,3-dioxoisoindolin-4-yl)amino)acetamido)ethoxy)ethoxy)ethyl)pyrrolidin-3-yl)-1H-pyrazol-4-yl)pyrazine-2-carboxylate], in the assay with FADD−/− Jurkat cells, the “Necroptosis inhibition assay (Rescue %) 1 μM” value was found to be 21.58% and the “Necroptosis inhibition assay (Rescue %) 10 μM” value is listed as 60.07%. Further, at MLKL [1], the “Degradation assay (Degradation %) 10 μM” value came to 37.75%. Further, the pKd on MLKL [2] is 8.24.

As to `Nc1ncc(-c2cnn(C3CCN(CCCN4CCN(C(=O)CC5CCN(c6cccc7c6C(=O)N(C6CCC(=O)NC6=O)C7=O)CC5)CC4)CC3)c2)nc1C(=O)O[C@@H](C(=O)Nc1ccc(F)cc1)c1ccccc1` (stereo partly drawn) [TDH-368, (R)-2-((4-fluorophenyl)amino)-2-oxo-1-phenylethyl 3-amino-6-(1-(1-(3-(4-(2-(1-(2-(2,6-dioxopiperidin-3-yl)-1,3-dioxoisoindolin-4-yl)piperidin-4-yl)acetyl)piperazin-1-yl)propyl)piperidin-4-yl)-1H-pyrazol-4-yl)pyrazine-2-carboxylate], in the assay on FADD−/− Jurkat cells, the “Necroptosis inhibition assay (Rescue %) 1 μM” value was 40.51% and the “Necroptosis inhibition assay (Rescue %) 10 μM” value is reported as 5.97%. Also, at MLKL [1], the “Degradation assay (Degradation %) 1 μM” value stood at 86.09% and the “Degradation assay (Degradation %) 10 μM” value was determined as 88.6%. The same compound gave a negative logarithm of the Kd (pKd) at MLKL [2] of 9.00.

Turning to `Nc1ncc(-c2cnn(C3CCN(CC4CCN(C(=O)CCc5ccc6c(c5)C(=O)N(C5CCC(=O)NC5=O)C6=O)CC4)CC3)c2)nc1C(=O)O[C@@H](C(=O)Nc1ccc(F)cc1)c1ccccc1` (stereo partly drawn) [TDH-328, (R)-2-((4-fluorophenyl)amino)-2-oxo-1-phenylethyl 3-amino-6-(1-(1-((1-(3-(2-(2,6-dioxopiperidin-3-yl)-1,3-dioxoisoindolin-5-yl)propanoyl)piperidin-4-yl)methyl)piperidin-4-yl)-1H-pyrazol-4-yl)pyrazine-2-carboxylate], in the assay on FADD−/− Jurkat cells, the “Necroptosis inhibition assay (Rescue %) 1 μM” value turned out to be 52.22% and the “Necroptosis inhibition assay (Rescue %) 10 μM” value was 31.65%. On MLKL [1], the “Degradation assay (Degradation %) 1 μM” value stood at 69.07% and the “Degradation assay (Degradation %) 10 μM” value worked out at 58.46%. Further, at MLKL [2], the pKd was 8.74.

As for `Nc1ncc(-c2cnn(C3CCN(C(=O)c4cn(C5CCN(C(=O)COc6ccc7c(c6)C(=O)N(C6CCC(=O)NC6=O)C7=O)CC5)cn4)CC3)c2)nc1C(=O)O[C@@H](C(=O)Nc1ccc(F)cc1)c1ccccc1` (stereo partly drawn) [TDH-355, (R)-2-((4-fluorophenyl)amino)-2-oxo-1-phenylethyl 3-amino-6-(1-(1-(1-(1-(2-((2-(2,6-dioxopiperidin-3-yl)-1,3-dioxoisoindolin-5-yl)oxy)acetyl)piperidin-4-yl)-1H-imidazole-4-carbonyl)piperidin-4-yl)-1H-pyrazol-4-yl)pyrazine-2-carboxylate], in the assay on FADD−/− Jurkat cells, the “Necroptosis inhibition assay (Rescue %) 1 μM” value is reported as 22.40% and the “Necroptosis inhibition assay (Rescue %) 10 μM” value worked out at 26.54%. On MLKL [1], the “Degradation assay (Degradation %) 1 μM” value was 59.51% and the “Degradation assay (Degradation %) 10 μM” value turned out to be 61.42%. The negative-log Kd (pKd) on MLKL [2] was 8.72.

Take `Nc1ncc(-c2ccc(N3CCN(CCOCCOCCNC(=O)COc4cccc5c4C(=O)N(C4CCC(=O)NC4=O)C5=O)CC3)nc2)nc1C(=O)OC(C(=O)Nc1ccc(F)cc1)c1ccccc1` (stereo not shown) [TDH-261, 2-((4-fluorophenyl)amino)-2-oxo-1-phenylethyl 3-amino-6-(6-(4-(2-(2-(2-(2-((2-(2,6-dioxopiperidin-3-yl)-1,3-dioxoisoindolin-4-yl)oxy)acetamido)ethoxy)ethoxy)ethyl)piperazin-1-yl)pyridin-3-yl)pyrazine-2-carboxylate]: in the assay with FADD−/− Jurkat cells, the “Necroptosis inhibition assay (Rescue %) 1 μM” value amounted to 15.5% and the “Necroptosis inhibition assay (Rescue %) 10 μM” value is 14.28%. Moreover, at MLKL [1], the “Degradation assay (Degradation %) 1 μM” value was 34.54% and the “Degradation assay (Degradation %) 10 μM” value is 42.25%. Moreover, the negative logarithm of the Kd (pKd) on MLKL [2] was 7.37.

Regarding `Nc1ncc(-c2cnn(C3CCN(CC4CCN(CC5CCN(C(=O)c6ccc7c(c6)CN(C6CCC(=O)NC6=O)C7=O)CC5)CC4)CC3)c2)nc1C(=O)O[C@@H](C(=O)Nc1ccc(F)cc1)c1ccccc1` (stereo partly drawn) [TDH-550, (R)-2-((4-fluorophenyl)amino)-2-oxo-1-phenylethyl 3-amino-6-(1-(1-((1-((1-(2-(2,6-dioxopiperidin-3-yl)-1-oxoisoindoline-5-carbonyl)piperidin-4-yl)methyl)piperidin-4-yl)methyl)piperidin-4-yl)-1H-pyrazol-4-yl)pyrazine-2-carboxylate], in the assay on FADD−/− Jurkat cells (FADD−/− Jurkat cells), the “Necroptosis inhibition assay (Rescue %) 1 μM” value was determined as 47.98% and the “Necroptosis inhibition assay (Rescue %) 10 μM” value is reported as 20.62%. Moreover, at MLKL [1], the “Degradation assay (Degradation %) 1 μM” value is recorded as 88.92% and the “Degradation assay (Degradation %) 10 μM” value was 86.09%. Also, the pKd at MLKL [2] was 9.28.

As to `Nc1ncc(-c2cnn(C3CCN(C4CC5(CCN(CC6CCN(C(=O)COc7ccc8c(c7)C(=O)N(C7CCC(=O)NC7=O)C8=O)CC6)CC5)C4)CC3)c2)nc1C(=O)O[C@@H](C(=O)Nc1ccc(F)cc1)c1ccccc1` (stereo partly drawn) [TDH-442, (R)-2-((4-fluorophenyl)amino)-2-oxo-1-phenylethyl 3-amino-6-(1-(1-(7-((1-(2-((2-(2,6-dioxopiperidin-3-yl)-1,3-dioxoisoindolin-5-yl)oxy)acetyl)piperidin-4-yl)methyl)-7-azaspiro[3.5]nonan-2-yl)piperidin-4-yl)-1H-pyrazol-4-yl)pyrazine-2-carboxylate], in the assay on FADD−/− Jurkat cells (FADD−/− Jurkat cells), the “Necroptosis inhibition assay (Rescue %) 1 μM” value is 58.16% and the “Necroptosis inhibition assay (Rescue %) 10 μM” value is listed as 21.7%. Further, on MLKL [1], the “Degradation assay (Degradation %) 1 μM” value came out at 80.37% and the “Degradation assay (Degradation %) 10 μM” value is 87.27%. On MLKL [2], this compound had a pKd of 9.28.

For `Nc1ncc(-c2cnn(C3CCN(CC4CN(C(=O)CNc5ccc6c(c5)C(=O)N(C5CCC(=O)NC5=O)C6=O)CCO4)CC3)c2)nc1C(=O)OC(C(=O)Nc1ccc(F)cc1)c1ccccc1` (stereo not shown) [TDH-307, 2-((4-fluorophenyl)amino)-2-oxo-1-phenylethyl 3-amino-6-(1-(1-((4-((2-(2,6-dioxopiperidin-3-yl)-1,3-dioxoisoindolin-5-yl)glycyl)morpholin-2-yl)methyl)piperidin-4-yl)-1H-pyrazol-4-yl)pyrazine-2-carboxylate], in the assay on FADD−/− Jurkat cells, the “Necroptosis inhibition assay (Rescue %) 1 μM” value is 83.43% and the “Necroptosis inhibition assay (Rescue %) 10 μM” value was 73.58%. Also, at MLKL [1], the “Degradation assay (Degradation %) 1 μM” value is on record as 57.38% and the “Degradation assay (Degradation %) 10 μM” value came to 24.79%. Moreover, on MLKL [2], the pKd was 8.80.

Turning to `Nc1ncc(-c2cnn(C3CCN(CCOCCOCCOCCNC(=O)CNc4cccc5c4C(=O)N(C4CCC(=O)NC4=O)C5=O)CC3)c2)nc1C(=O)O[C@@H](C(=O)Nc1ccc(F)cc1)c1ccccc1` (stereo partly drawn) [TDH-143, (R)-2-((4-fluorophenyl)amino)-2-oxo-1-phenylethyl 3-amino-6-(1-(1-(1-((2-(2,6-dioxopiperidin-3-yl)-1,3-dioxoisoindolin-4-yl)amino)-2-oxo-6,9,12-trioxa-3-azatetradecan-14-yl)piperidin-4-yl)-1H-pyrazol-4-yl)pyrazine-2-carboxylate], in the assay on FADD−/− Jurkat cells, the “Necroptosis inhibition assay (Rescue %) 1 μM” value stood at 20.58% and the “Necroptosis inhibition assay (Rescue %) 10 μM” value is 64.35%. At MLKL [1], the “Degradation assay (Degradation %) 1 μM” value is reported as 64% and the “Degradation assay (Degradation %) 10 μM” value was 85.29%. Moreover, the pKd on MLKL [2] is 8.35.

As for `Nc1ncc(-c2cnn(C3CCN(CCC4CCN(C(=O)CCc5cccc6c5C(=O)N(C5CCC(=O)NC5=O)C6=O)CC4)CC3)c2)nc1C(=O)O[C@@H](C(=O)Nc1ccc(F)cc1)c1ccccc1` (stereo partly drawn) [TDH-376, (R)-2-((4-fluorophenyl)amino)-2-oxo-1-phenylethyl 3-amino-6-(1-(1-(2-(1-(3-(2-(2,6-dioxopiperidin-3-yl)-1,3-dioxoisoindolin-4-yl)propanoyl)piperidin-4-yl)ethyl)piperidin-4-yl)-1H-pyrazol-4-yl)pyrazine-2-carboxylate], in the assay on FADD−/− Jurkat cells, the “Necroptosis inhibition assay (Rescue %) 1 μM” value came out at 76.20% and the “Necroptosis inhibition assay (Rescue %) 10 μM” value worked out at 30.33%. Moreover, on MLKL [1], the “Degradation assay (Degradation %) 1 μM” value is 93.13% and the “Degradation assay (Degradation %) 10 μM” value is listed as 86.31%. The compound further had a pKd on MLKL [2] of 9.27.
